GI50 and TGI data for eight compounds are collected here from PubChem BioAssay (NCI).

Test systems include IGROV1 ovarian; EKVX NSCLC; SF-295 CNS; A549 NSCLC; ACHN renal; SNB-19 CNS; SN12C renal; NCI-H226 lung; NCI-H23 lung; 786-0 renal.
Assay in all cases: inhibition of tumour cell growth, NCI panel, 48 h

Molecules are shown by their SMILES.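 Test compounds were applied to cells in 96-well plates for 48 hours at 5 doses. Abbreviation: GI50, concentration required for 50% inhibition of growth. The concentration for full growth arrest is given as TGI.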

Consider `O=C(O)Cn1ccc2ccccc21`, for which the GI50 with IGROV1 ovarian is 72.7 µM; with EKVX NSCLC, above 100 µM; in the experiment on SF-295 CNS, above 100 µM; with A549 NSCLC it was above 100 µM; in the experiment with ACHN renal it was above 100 µM; in the experiment with SNB-19 CNS, above 100 µM. For the same compound, the GI50 with SN12C renal, with NCI-H226 lung, with NCI-H23 lung and with 786-0 renal was above 100 µM each time. The TGI with IGROV1 ovarian, in the experiment on EKVX NSCLC, with SF-295 CNS, in the experiment on A549 NSCLC, in the experiment with ACHN renal and in the experiment with SNB-19 CNS was above 100 µM in each case. The TGI in the experiment on SN12C renal, in the experiment on NCI-H226 lung, in the experiment with NCI-H23 lung and with 786-0 renal was above 100 µM in each case.
Consider `O=C1Nc2ccccc2/C1=C/c1cn(CC(O)Cn2cc(/C=C3\C(=O)Nc4ccccc43)c3ccccc32)c2ccccc12` (configuration not stated), for which the GI50 in the experiment with IGROV1 ovarian was 0.477 µM; in the experiment with EKVX NSCLC, 1.81 µM; with SF-295 CNS it was 1.66 µM; with A549 NSCLC it was 1.51 µM; in the experiment on ACHN renal it was 1.63 µM; in the experiment on SNB-19 CNS, 1.21 µM. The GI50 with SN12C renal is 1.52 µM; with NCI-H226 lung, 1.68 µM; in the experiment with NCI-H23 lung, 1.57 µM; in the experiment on 786-0 renal it was 1.67 µM. Moreover, the TGI with IGROV1 ovarian is 1.9 µM; in the experiment with EKVX NSCLC, 3.78 µM; in the experiment on SF-295 CNS, 3.28 µM; with A549 NSCLC, 3.21 µM; in the experiment with ACHN renal it was 3.91 µM; with SNB-19 CNS, 3.82 µM. Further, the TGI in the experiment on SN12C renal amounted to 3.16 µM; with NCI-H226 lung, 3.55 µM; in the experiment with NCI-H23 lung, 3.36 µM; with 786-0 renal, 3.21 µM.
On to `Oc1c(O)c(Cl)c(Cl)c(Cl)c1Cl`, for which the GI50 in the experiment with IGROV1 ovarian is 3.06 µM; with EKVX NSCLC, 2.95 µM; in the experiment with SF-295 CNS it was 3.23 µM; with A549 NSCLC, 4.2 µM; with ACHN renal, 5.15 µM; in the experiment with SN12C renal, 3.79 µM. The GI50 is 4.62 µM in the experiment with NCI-H226 lung, 3.04 µM with NCI-H23 lung and 7.98 µM in the experiment on 786-0 renal. For the same compound, the TGI in the experiment on IGROV1 ovarian stood at 10.4 µM; in the experiment on EKVX NSCLC, 18.9 µM; with SF-295 CNS it was 12.7 µM; in the experiment on A549 NSCLC it was 24.1 µM; with ACHN renal, 35.5 µM; in the experiment on SN12C renal it was 50 µM. Also, the TGI in the experiment with NCI-H226 lung turned out to be 24.3 µM; in the experiment with NCI-H23 lung, 9.28 µM; in the experiment on 786-0 renal it was 33 µM.
As to `COc1cc(C2c3cc4c(cc3[C@@H](N(C)c3ccc(N(C)C)cc3)C3COC(=O)C23)OCO4)cc(OC)c1O` (some centres not stated), the TGI in the experiment on IGROV1 ovarian came to 31.5 µM; in the experiment with EKVX NSCLC it was 44.2 µM; in the experiment with SF-295 CNS, 0.325 µM; in the experiment on ACHN renal it was 18.8 µM; in the experiment on SNB-19 CNS it was 42.6 µM; in the experiment with SN12C renal it was 18.1 µM. Further, the TGI was 0.625 µM in the experiment with NCI-H226 lung, 4.92 µM in the experiment on NCI-H23 lung and 26.4 µM in the experiment on 786-0 renal.
On to `CCN(CC)c1ccc(N=Nc2ccc(-c3nc4cccn(C)c-4n3)cc2)cc1`, for which the TGI in the experiment on IGROV1 ovarian is 25 µM; with EKVX NSCLC, 84.9 µM; in the experiment on SF-295 CNS it was 19.4 µM; with A549 NSCLC, 25.6 µM; in the experiment on SNB-19 CNS, 52.4 µM; in the experiment with SN12C renal it was 19.3 µM. Moreover, the TGI in the experiment on NCI-H226 lung amounted to 43.8 µM; in the experiment with NCI-H23 lung it was 34.7 µM; with 786-0 renal, 17 µM.
As for `Cc1ccccc1N=Nc1c(-c2ccccc2)nn(C(=O)CC(=O)Nc2cccc(Cl)c2)c1-c1ccccc1`, the TGI in the experiment with IGROV1 ovarian is above 31.6 µM; in the experiment with EKVX NSCLC, above 31.6 µM; with SF-295 CNS, above 31.6 µM; with ACHN renal, above 31.6 µM; in the experiment with SNB-19 CNS, above 100 µM; in the experiment on SN12C renal, 22.9 µM. In addition, the TGI in the experiment on NCI-H226 lung, in the experiment with NCI-H23 lung and with 786-0 renal was above 31.6 µM in each case.
Turning to `CCN(CC)c1ccc2nc3ccc(N=Nc4ccc(O)cc4)cc3[n+](-c3ccccc3)c2c1`, the GI50 with EKVX NSCLC is 3.59 µM; in the experiment with SF-295 CNS it was 2.86 µM; in the experiment with A549 NSCLC it was 4.85 µM; with ACHN renal it was 4.1 µM; with SNB-19 CNS, 11 µM; in the experiment with SN12C renal, 10.7 µM. Further, the GI50 in the experiment on NCI-H226 lung was 11.4 µM; in the experiment on NCI-H23 lung, 3.75 µM; with 786-0 renal, 26.6 µM. Besides, the TGI in the experiment with EKVX NSCLC is 64.8 µM; in the experiment with SF-295 CNS it was above 100 µM; in the experiment with A549 NSCLC, above 100 µM; with ACHN renal, 21.1 µM; with SNB-19 CNS it was 22.9 µM; in the experiment on SN12C renal, 36.7 µM. Besides, the figures for the TGI in the experiment on NCI-H226 lung, in the experiment with NCI-H23 lung and with 786-0 renal were 23.6 µM, 40.3 µM and above 100 µM, respectively.
For `Cc1cc2c(cc1CO)N1Cc3cc(C)c(CO)cc3N(C2)C1`, the TGI in the experiment on IGROV1 ovarian, with EKVX NSCLC, with SF-295 CNS, in the experiment on A549 NSCLC, in the experiment with SNB-19 CNS and in the experiment with SN12C renal was above 100 µM in each case. The TGI in the experiment on NCI-H226 lung, with NCI-H23 lung and in the experiment on 786-0 renal was above 100 µM each time.
